From ChEMBL document CHEMBL3352116, “Discovery heralds new approach to the treatment of cystic fibrosis” (J Med Chem, 2014)
pEC50: −log10 of the molar value.

Tests used:
[1] = target: Cystic fibrosis transmembrane conductance regulator (Homo sapiens, UniProt P13569); test: Corrector activity at CFTR mutant (unknown origin) by phenotypic screening assay
[2] = Half life in rat; format: ADME, organism-based; conditions: in vivo
[3] = Oral bioavailability in rat; format: ADME, organism-based; conditions: in vivo
[4] = Inhibition of CYP450 (unknown origin); format: ADME; conditions: human
[5] = target: Cystic fibrosis transmembrane conductance regulator (Homo sapiens, UniProt P13569, F508DEL/G551D); test: […] activity at human bronchial epithelium CFTR F508del and G551D mutant assessed as increase in channel gating
Cystic fibrosis transmembrane conductance regulator (Homo sapiens, UniProt P13569, F508DEL/G551D), sequence (P13569 as listed by the source): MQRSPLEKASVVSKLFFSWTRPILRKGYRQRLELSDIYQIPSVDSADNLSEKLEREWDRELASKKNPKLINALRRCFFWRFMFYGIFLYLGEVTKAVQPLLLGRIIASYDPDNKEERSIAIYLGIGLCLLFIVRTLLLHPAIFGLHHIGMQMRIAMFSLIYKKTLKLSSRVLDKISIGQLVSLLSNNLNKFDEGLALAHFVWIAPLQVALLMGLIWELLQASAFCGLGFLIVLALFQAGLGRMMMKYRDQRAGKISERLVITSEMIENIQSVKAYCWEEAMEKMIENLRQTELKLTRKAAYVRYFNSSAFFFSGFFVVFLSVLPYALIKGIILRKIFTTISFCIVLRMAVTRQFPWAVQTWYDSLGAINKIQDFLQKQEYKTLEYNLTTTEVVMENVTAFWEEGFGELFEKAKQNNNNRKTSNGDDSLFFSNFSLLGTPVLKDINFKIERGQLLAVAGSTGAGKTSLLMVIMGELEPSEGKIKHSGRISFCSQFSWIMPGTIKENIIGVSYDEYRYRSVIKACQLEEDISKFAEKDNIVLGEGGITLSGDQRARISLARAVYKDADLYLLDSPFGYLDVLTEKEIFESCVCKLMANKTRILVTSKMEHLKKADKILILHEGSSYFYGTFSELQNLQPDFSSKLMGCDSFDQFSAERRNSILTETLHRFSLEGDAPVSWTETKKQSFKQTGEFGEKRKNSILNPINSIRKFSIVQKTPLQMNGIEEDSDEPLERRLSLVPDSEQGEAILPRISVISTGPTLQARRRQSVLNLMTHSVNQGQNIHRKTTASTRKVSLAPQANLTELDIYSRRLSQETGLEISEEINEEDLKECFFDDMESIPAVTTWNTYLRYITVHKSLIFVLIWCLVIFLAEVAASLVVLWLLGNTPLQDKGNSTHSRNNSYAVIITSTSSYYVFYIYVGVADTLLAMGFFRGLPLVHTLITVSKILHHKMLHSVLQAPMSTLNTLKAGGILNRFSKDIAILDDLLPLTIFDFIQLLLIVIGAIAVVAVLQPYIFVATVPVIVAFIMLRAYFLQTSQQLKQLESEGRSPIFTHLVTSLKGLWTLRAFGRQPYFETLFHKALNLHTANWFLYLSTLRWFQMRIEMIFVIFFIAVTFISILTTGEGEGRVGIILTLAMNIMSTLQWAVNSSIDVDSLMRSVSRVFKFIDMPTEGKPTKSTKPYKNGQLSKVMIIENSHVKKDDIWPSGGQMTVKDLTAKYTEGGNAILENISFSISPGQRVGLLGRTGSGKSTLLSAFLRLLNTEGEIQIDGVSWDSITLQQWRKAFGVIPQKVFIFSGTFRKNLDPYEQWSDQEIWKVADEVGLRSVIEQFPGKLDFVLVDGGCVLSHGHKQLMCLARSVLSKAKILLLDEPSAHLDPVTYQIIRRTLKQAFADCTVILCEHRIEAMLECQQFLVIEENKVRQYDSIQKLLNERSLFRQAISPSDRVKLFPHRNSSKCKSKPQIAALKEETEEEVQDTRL

Cystic fibrosis transmembrane conductance regulator (Homo sapiens, UniProt P13569), sequence (P13569 whole entry, looked up, change not shown): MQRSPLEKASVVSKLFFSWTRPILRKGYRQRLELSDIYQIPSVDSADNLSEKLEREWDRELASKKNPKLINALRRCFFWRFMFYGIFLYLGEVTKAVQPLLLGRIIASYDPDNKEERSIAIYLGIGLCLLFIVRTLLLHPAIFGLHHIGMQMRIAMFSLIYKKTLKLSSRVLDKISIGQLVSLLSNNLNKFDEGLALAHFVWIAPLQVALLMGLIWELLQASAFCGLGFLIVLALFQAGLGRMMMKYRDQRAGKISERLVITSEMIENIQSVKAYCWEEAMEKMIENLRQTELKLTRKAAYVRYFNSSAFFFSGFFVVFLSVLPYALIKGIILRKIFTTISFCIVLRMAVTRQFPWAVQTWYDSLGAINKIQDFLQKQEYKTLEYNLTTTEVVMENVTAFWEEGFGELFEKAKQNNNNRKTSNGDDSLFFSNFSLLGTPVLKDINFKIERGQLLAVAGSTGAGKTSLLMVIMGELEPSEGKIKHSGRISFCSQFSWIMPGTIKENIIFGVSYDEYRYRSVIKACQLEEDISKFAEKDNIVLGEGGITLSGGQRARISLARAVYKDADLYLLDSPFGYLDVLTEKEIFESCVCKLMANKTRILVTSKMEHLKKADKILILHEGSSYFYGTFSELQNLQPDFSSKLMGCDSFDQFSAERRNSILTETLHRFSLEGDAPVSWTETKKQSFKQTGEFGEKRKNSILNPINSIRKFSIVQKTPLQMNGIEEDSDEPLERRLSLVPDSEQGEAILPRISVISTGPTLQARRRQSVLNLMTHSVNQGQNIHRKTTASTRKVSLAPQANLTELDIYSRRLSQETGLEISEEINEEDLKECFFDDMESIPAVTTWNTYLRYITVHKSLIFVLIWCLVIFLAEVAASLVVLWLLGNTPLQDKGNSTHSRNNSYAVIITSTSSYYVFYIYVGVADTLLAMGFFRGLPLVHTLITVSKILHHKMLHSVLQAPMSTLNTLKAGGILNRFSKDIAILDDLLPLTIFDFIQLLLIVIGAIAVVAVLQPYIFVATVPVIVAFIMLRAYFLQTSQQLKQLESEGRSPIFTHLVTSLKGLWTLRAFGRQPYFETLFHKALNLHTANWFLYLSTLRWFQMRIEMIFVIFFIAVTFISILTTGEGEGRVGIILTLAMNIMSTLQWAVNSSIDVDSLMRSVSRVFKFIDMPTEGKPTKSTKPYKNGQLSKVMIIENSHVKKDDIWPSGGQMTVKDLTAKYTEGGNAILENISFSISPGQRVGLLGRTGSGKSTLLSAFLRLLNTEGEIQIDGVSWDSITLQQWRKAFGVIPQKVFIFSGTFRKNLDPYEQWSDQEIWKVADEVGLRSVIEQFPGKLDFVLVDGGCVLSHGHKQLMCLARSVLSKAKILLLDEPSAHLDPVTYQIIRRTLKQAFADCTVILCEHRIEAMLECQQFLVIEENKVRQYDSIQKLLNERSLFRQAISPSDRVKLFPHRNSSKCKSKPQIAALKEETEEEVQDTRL

In the case of `CC(C)(C)c1cc(C(C)(C)C)c(NC(=O)c2c[nH]c3ccccc3c2=O)cc1O` [IVACAFTOR], the pEC50 [1] was 8.52, the half-life [2] was 9.5 h and the bioavailability [3] was 55%. The “inhibition (INH)” value [4] was “Not Active” and the pEC50 [5] was 6.63.
`O=C(Nc1ccc2cc[nH]c2c1)c1c[nH]c2ccccc2c1=O` gave a pEC50 [1] of 7.00.
In the case of `O=C(c1c[nH]c2ccccc2c1=O)N(Cc1ccccc1)Cc1ccccc1`, the pEC50 [1] was 5.68.
